Molecules are shown by their SMILES.

Results on six compounds are retold here after patent publication US11000033B2, “Ketone or oxime compound, and herbicide” (NISSAN CHEMICAL CORPORATION, priority 2014, dated 2021).

Common to all, as to assay type: in vivo
Data set [1] deals with Amaranthus retroflexus. As to the kind of experiment: Test Example 4: herbicidal effect by soil treatment (symbol N). The settings on record: for Herbicidal effect grade, N: Amaranthus retroflexus / N (Amaranthus retroflexus) herbicidal effect grade: application herbicide amount 320 g/ha. The gist of the method:
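Seeds were sown in sterilized diluvial soil, covered with about 1.5 cm of soil, and the soil surface was sprayed with a water-diluted emulsion of the compound at a predetermined rate. Plants grew in a greenhouse at 25° C. to 30° C.; effects were scored visually 3 weeks after application.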

Data set [2] concerns soybean. In words: Test Example 4: effect on crop by soil treatment (symbol d). The settings on record: for Effect on crop grade, d: soybean / d (soybean) effect on crop grade: application herbicide amount 320 g/ha. Put shortly:
(§1)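 Plants are raised in a greenhouse (25° C. to 30° C.) from spot-sown seed, which sits under about 1.5 cm of sterilized diluvial soil in a box shared with weed species.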

Data set [3] has as its system Echinochloa crus-galli var. crus-galli. In words: Test Example 3: herbicidal effect by foliage application, Wagner pot (symbol H). The settings on record: application herbicide amount 320 g/ha; for H (Echinochloa crus-galli var. crus-galli) herbicidal effect grade: Table 24. The gist of the method: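 Plants sown in submerged alluvial soil (water depth 0.1–0.5 cm) in a 25–30 °C greenhouse and grown 14 days. An emulsion of the compound diluted in water to a set herbicide amount was sprayed uniformly on foliage. Effect on each plant scored 3 weeks after application.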

Data set [4] deals with Scirpus juncoides. As to the kind of experiment: Test Example 2: herbicidal activity, application during weed generation in submerged conditions (symbol B). The settings on record: Table 23; application herbicide amount 320 g/ha; grade 0-5 by criteria of Test Example 1. Put shortly:
(§2)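 Seeds sown in flooded alluvial soil (4 cm water) were grown in a 25-30° C greenhouse. At the one- to two-leaf stage, diluted emulsion of compound was applied to the water surface at a predetermined rate. Effect was scored 3 weeks later.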

The test system of data set [5] is soybean. In words: Test Example 5: effect on crop by foliage application, plastic box (symbol d). The settings on record: 320 g/ha, 3 weeks after application. The gist of the method:
(§3)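 Crop and weed seeds sown in spots in sterilized diluvial soil in plastic boxes and covered with about 1.5 cm soil. Plants raised in a greenhouse at 25° C. to 30° C. for foliar application.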

Data set [6] concerns Echinochloa oryzacola Vasing. As to the kind of experiment: Test Example 1: herbicidal activity, application before weed generation in submerged conditions (symbol A). The settings on record: application herbicide amount 320 g/ha. Put shortly: (§4)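 Steps: alluvial soil flooded to 4 cm; weed seeds sown together; rice seedlings (2.5 leaf) transplanted; diluted emulsion applied to water surface the same day as sowing; plants grown at 25–30 °C in greenhouse; herbicidal effect rated on a 0–5 scale at 3 weeks.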

Data set [7] concerns Monochoria vaginalis. As to the kind of experiment: Test Example 2: herbicidal activity, application during weed generation in submerged conditions (symbol C). The settings on record: Table 23; application herbicide amount 320 g/ha; grade 0-5 by criteria of Test Example 1. Put shortly:
as §2

The test system of data set [8] is Scirpus juncoides. As to the kind of experiment: Test Example 1: herbicidal activity, application before weed generation in submerged conditions (symbol B). The settings on record: application herbicide amount 320 g/ha. The gist of the method: as §4
Data set [9] has as its system wheat. As to the kind of experiment: Test Example 5: effect on crop by foliage application, plastic box (symbol e). The settings on record: 320 g/ha, 3 weeks after application. The gist of the method: as §3
Data set [10] has as its system rapeseed. As to the kind of experiment: Test Example 4: effect on crop by soil treatment (symbol g). Put shortly:
as §1

Data set [11] deals with Avena fatua. As to the kind of experiment: Test Example 5: herbicidal effect by foliage application, plastic box (symbol I). The settings on record: 320 g/ha, 3 weeks after application. Put shortly: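 Herbicide, formulated as an emulsion and diluted in water, is sprayed onto the aerial parts of 14-day seedlings. These were grown at 25° C. to 30° C. in sterilized diluvial soil; effects are graded after 3 weeks.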

Data set [12] deals with rice plant. In words: Test Example 5: effect on crop by foliage application, plastic box (symbol b). The settings on record: 320 g/ha, 3 weeks after application. The gist of the method: as §3
Setting [13] is: application herbicide amount 320 g/ha.

On to `CCCC=CC(=O)OC1=C(c2c(C)cc(C)cc2C)C(=O)C(CC(C)=NOC)C1` (stereo not drawn) [1-090], for which the “N: Amaranthus retroflexus, herbicidal effect grade” value in data set [1] (320 g/ha) was 0 (Herbicidal ratio of 5% or lower (almost no effect)). Further, in data set [2] (320 g/ha), the “d: soybean, effect grade on crop” value was 0 (Herbicidal ratio of 5% or lower (almost no effect)). Also, the “herbicidal effect on H (Echinochloa crus-galli var. crus-galli), grade 0-5” value (“herbicidal effect on H” for short) in [3] is reported as 5 (Herbicidal ratio of 90% or more (almost completely withered)). In addition, the “Herbicidal effect grade, B: Scirpus juncoides” value (shortened to “Herbicidal effect grade, B”) in data set [4] and in [8] was 5 (Herbicidal ratio of 90% or more (almost completely withered)) each time. In addition, the “d: soybean, effect on crop (criteria 0-5)” value in data set [5] is 3 (Herbicidal ratio of 40% or higher and lower than 70%). Besides, the “Herbicidal effect grade, A: Echinochloa oryzacola Vasing.” value in [6] is on record as 5 (Herbicidal ratio of 90% or more (almost completely withered)). Besides, the “Herbicidal effect grade, C: Monochoria vaginalis” value (from here on “Herbicidal effect grade, C”) in data set [7] is 3 (Herbicidal ratio of 40% or higher and lower than 70%). In addition, the “e: wheat, effect on crop (criteria 0-5)” value in data set [9] is recorded as 5 (Herbicidal ratio of 90% or more (almost completely withered)). Further, in data set [10] (320 g/ha), the “g: rapeseed, effect grade on crop” value was 4 (Herbicidal ratio of 70% or higher and lower than 90%). In data set [11], the “I: Avena fatua, herbicidal effect (criteria 0-5)” value was 5 (Herbicidal ratio of 90% or more (almost completely withered)). Also, in data set [12], the “b: directly sowed rice plant, effect on crop (criteria 0-5)” value is 5 (Herbicidal ratio of 90% or more (almost completely withered)).

In the case of `CON=C(CC1CC(O)=C(c2c(C)cc(-n3cc(Cl)cn3)cc2C)C1=O)C(C)C` (stereo not drawn) [9-004], in data set [1], the “Herbicidal effect grade, N: Amaranthus retroflexus” value (“Herbicidal effect grade, N” below) is reported as 0 (Herbicidal ratio of 5% or lower (almost no effect)). Also, the “Effect on crop grade, d: soybean” value in data set [2] is 0 (Herbicidal ratio of 5% or lower (almost no effect)). Further, the “H (Echinochloa crus-galli var. crus-galli) herbicidal effect grade” value in data set [3] is recorded as 5 (Herbicidal ratio of 90% or more (almost completely withered)). Moreover, the “Herbicidal effect grade, B” value in [4] was 2 (Herbicidal ratio of 20% or higher and lower than 40%); in [8], 2 (Herbicidal ratio of 20% or higher and lower than 40%). The “d: soybean, effect on crop grade” value in data set [5] is 0 (Herbicidal ratio of 5% or lower (almost no effect)). Besides, the “Herbicidal effect grade, A: Echinochloa oryzacola Vasing.” value in data set [6] is 5 (Herbicidal ratio of 90% or more (almost completely withered)). In [7], the “Herbicidal effect grade, C” value is recorded as 0 (Herbicidal ratio of 5% or lower (almost no effect)). Moreover, the “e: wheat, effect on crop grade” value in [9] was 3 (Herbicidal ratio of 40% or higher and lower than 70%). Also, the “Effect on crop grade, g: rapeseed” value in [10] (setting [13]) is reported as 0 (Herbicidal ratio of 5% or lower (almost no effect)). Besides, in [11], the “I: Avena fatua, herbicidal effect grade” value is reported as 5 (Herbicidal ratio of 90% or more (almost completely withered)).

Regarding `CON=C(C)CC1CC(OC(=O)COc2cccc(C#N)c2)=C(c2c(C)cc(C)cc2C)C1=O` (stereo not drawn) [1-074], the “N (Amaranthus retroflexus) herbicidal effect grade” value in data set [1] is reported as 5 (Herbicidal ratio of 90% or more (almost completely withered)). In addition, the “d (soybean) effect on crop grade” value in data set [2] is 0 (Herbicidal ratio of 5% or lower (almost no effect)). In data set [3], the “herbicidal effect on H” value was 5 (Herbicidal ratio of 90% or more (almost completely withered)). In addition, the “Herbicidal effect grade, B” value in data set [4] was 4 (Herbicidal ratio of 70% or higher and lower than 90%); in data set [8], 5 (Herbicidal ratio of 90% or more (almost completely withered)). Also, the “d: soybean, effect on crop (criteria 0-5)” value in data set [5] is 4 (Herbicidal ratio of 70% or higher and lower than 90%). In addition, the “Herbicidal effect grade, A: Echinochloa oryzacola Vasing.” value in data set [6] is 5 (Herbicidal ratio of 90% or more (almost completely withered)). Besides, the “e: wheat, effect on crop (criteria 0-5)” value in data set [9] was 5 (Herbicidal ratio of 90% or more (almost completely withered)). In [10] (setting [13]), the “g (rapeseed) effect on crop grade” value is 4 (Herbicidal ratio of 70% or higher and lower than 90%). Besides, the “I: Avena fatua, herbicidal effect (criteria 0-5)” value in data set [11] is given as 5 (Herbicidal ratio of 90% or more (almost completely withered)). The “b: directly sowed rice plant, effect on crop (criteria 0-5)” value in [12] is 5 (Herbicidal ratio of 90% or more (almost completely withered)).

For `CON=C(CC1CC(O)=C(c2c(C)cc(C)cc2C)C1=O)c1ccccc1` (stereo not drawn) [1-047], the “N (Amaranthus retroflexus) herbicidal effect grade” value in data set [1] is recorded as 0 (Herbicidal ratio of 5% or lower (almost no effect)). Moreover, the “d (soybean) effect on crop grade” value in [2] is given as 0 (Herbicidal ratio of 5% or lower (almost no effect)). In [3], the “herbicidal effect on H” value is 1 (Herbicidal ratio of 5% or higher and lower than 20%). Moreover, the “Herbicidal effect grade, B” value in data set [4] and in [8] was 0 (Herbicidal ratio of 5% or lower (almost no effect)) in each case. Also, in [5], the “d: soybean, effect on crop grade” value is 0 (Herbicidal ratio of 5% or lower (almost no effect)). For the same compound, the “Herbicidal effect grade, A: Echinochloa oryzacola Vasing.” value in [6] is 4 (Herbicidal ratio of 70% or higher and lower than 90%). The “Herbicidal effect grade, C” value in data set [7] is given as 0 (Herbicidal ratio of 5% or lower (almost no effect)). In addition, the “e: wheat, effect on crop grade” value in data set [9] was 0 (Herbicidal ratio of 5% or lower (almost no effect)). Also, in [11], the “I: Avena fatua, herbicidal effect grade” value was 0 (Herbicidal ratio of 5% or lower (almost no effect)). The “b: directly sowed rice plant, effect on crop grade” value in data set [12] was 4 (Herbicidal ratio of 70% or higher and lower than 90%).

On to `CC#Cc1cc(C)c(C2=C(OC(=O)COc3ccccc3)CC(CC(=NOC)C(C)C)C2=O)c(C)c1` (stereo not drawn) [9-003], for which the “Herbicidal effect grade, N” value in [1] is reported as 0 (Herbicidal ratio of 5% or lower (almost no effect)). In [2], the “Effect on crop grade, d: soybean” value is 0 (Herbicidal ratio of 5% or lower (almost no effect)). Besides, in data set [3], the “H (Echinochloa crus-galli var. crus-galli) herbicidal effect grade” value was 5 (Herbicidal ratio of 90% or more (almost completely withered)). For the same compound, the “Herbicidal effect grade, B” value in [4] was 4 (Herbicidal ratio of 70% or higher and lower than 90%); in data set [8], 4 (Herbicidal ratio of 70% or higher and lower than 90%). Also, the “d: soybean, effect on crop grade” value in data set [5] was 4 (Herbicidal ratio of 70% or higher and lower than 90%). Moreover, in [6], the “Herbicidal effect grade, A: Echinochloa oryzacola Vasing.” value is 5 (Herbicidal ratio of 90% or more (almost completely withered)). Further, the “e: wheat, effect on crop grade” value in data set [9] was 4 (Herbicidal ratio of 70% or higher and lower than 90%). Also, the “Effect on crop grade, g: rapeseed” value in data set [10] (setting [13]) is 5 (Herbicidal ratio of 90% or more (almost completely withered)). Further, the “I: Avena fatua, herbicidal effect grade” value in [11] was 4 (Herbicidal ratio of 70% or higher and lower than 90%). For the same compound, in data set [12], the “b: directly sowed rice plant, effect on crop grade” value was 5 (Herbicidal ratio of 90% or more (almost completely withered)).

Consider `CC(CC1CC(O)=C(c2c(C)cc(Br)cc2C)C1=O)=NOCC(=O)N(C)C` (mixture of isomers) [9-029], for which the “Herbicidal effect grade, N” value in data set [1] is given as 0 (Herbicidal ratio of 5% or lower (almost no effect)). The “Effect on crop grade, d: soybean” value in [2] is given as 0 (Herbicidal ratio of 5% or lower (almost no effect)). Also, the “H (Echinochloa crus-galli var. crus-galli) herbicidal effect grade” value in data set [3] was 4 (Herbicidal ratio of 70% or higher and lower than 90%). Besides, the “Herbicidal effect grade, B” value in data set [4] is on record as 0 (Herbicidal ratio of 5% or lower (almost no effect)). Further, the “d: soybean, effect on crop grade” value in [5] is recorded as 0 (Herbicidal ratio of 5% or lower (almost no effect)). The “Herbicidal effect grade, C” value in [7] is 0 (Herbicidal ratio of 5% or lower (almost no effect)). Further, the “e: wheat, effect on crop grade” value in [9] is 4 (Herbicidal ratio of 70% or higher and lower than 90%). The “Effect on crop grade, g: rapeseed” value in data set [10] (setting [13]) was 0 (Herbicidal ratio of 5% or lower (almost no effect)). Besides, the “I: Avena fatua, herbicidal effect grade” value in data set [11] is 5 (Herbicidal ratio of 90% or more (almost completely withered)). For the same compound, in data set [12], the “b: directly sowed rice plant, effect on crop grade” value is 3 (Herbicidal ratio of 40% or higher and lower than 70%).
